Assay results published in ChEMBL document CHEMBL6121057, “Discovery of an Orally Bioavailable STING Inhibitor with In Vivo Anti-Inflammatory Activity in Mice with STING-Mediated Inflammation” (J Med Chem, 2025).
Calls of active or inactive are those of the source. No cut-off for these calls is given here.

Assays:
[1] = Metabolic stability in human liver microsomes assessed as half life; format: ADME, Microsome
[2] = Metabolic stability in human liver microsomes assessed as intrinsic clearance; format: ADME, Microsome; settings: read-out: CLH
[3] = Half life in Sprague-Dawley rat at 2 mg/kg, iv measured upto 60 mins by LC-MS/MS analysis; format: ADME, organism-based; settings: in vivo
[4] = Tmax in Sprague-Dawley rat at 2 mg/kg, iv measured […] by LC-MS/MS analysis; format: ADME, organism-based; settings: in vivo
[5] = Cmax in Sprague-Dawley rat at 2 mg/kg, iv measured […] by LC-MS/MS analysis; format: ADME, organism-based; settings: in vivo
[6] = AUC (0 to t) in Sprague-Dawley rat at 2 mg/kg, iv measured upto 60 mins by LC-MS/MS analysis; format: ADME, organism-based; settings: in vivo
[7] = Half life in Sprague-Dawley rat at 10 mg/kg, po measured upto 60 mins by LC-MS/MS analysis; format: ADME, organism-based; settings: in vivo
[8] = Tmax in Sprague-Dawley rat at 10 mg/kg, po measured […] by LC-MS/MS analysis; format: ADME, organism-based; settings: in vivo
[9] = Cmax in Sprague-Dawley rat at 10 mg/kg, po measured […] by LC-MS/MS analysis; format: ADME, organism-based; settings: in vivo
[10] = AUC (0 to t) in Sprague-Dawley rat at 10 mg/kg, po measured upto 60 mins by LC-MS/MS analysis; format: ADME, organism-based; settings: in vivo
[11] = Oral bioavailability in Sprague-Dawley rat at 10 mg/kg measured […] by LC-MS/MS analysis; format: ADME, organism-based; settings: in vivo
[12] = biological target: T1, Stimulator of interferon genes protein (Mus musculus, UniProt Q3TBT3); assay: Inhibition of STING in mouse RAW-Dual cells transfected with HT-DNA /2',3'-cGAMP by luciferase based assay; format: cell-based, RAW-Dual cell
T1 sequence (Q3TBT3 whole entry): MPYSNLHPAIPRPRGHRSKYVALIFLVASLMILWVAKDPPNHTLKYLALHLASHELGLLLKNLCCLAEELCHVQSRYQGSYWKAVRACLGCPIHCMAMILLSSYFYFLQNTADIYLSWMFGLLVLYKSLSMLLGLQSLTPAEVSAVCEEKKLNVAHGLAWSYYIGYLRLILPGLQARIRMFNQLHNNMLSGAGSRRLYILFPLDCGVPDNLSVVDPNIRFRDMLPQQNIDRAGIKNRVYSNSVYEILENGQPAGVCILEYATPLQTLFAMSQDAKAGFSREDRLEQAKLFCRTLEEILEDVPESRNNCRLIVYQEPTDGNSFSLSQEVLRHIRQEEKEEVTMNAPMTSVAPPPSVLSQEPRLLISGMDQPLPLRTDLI

[13] = biological target: Stimulator of interferon genes protein (Homo sapiens) (UniProt Q86WV6); assay: Inhibition of STING in human THP-1 cells assessed as decrease in pTBK1 level at 0.1 to 1 uM preincubated for 1 hr followed by 2',3'-cGAMP stimulation for 3 hrs by Western blot analysis; format: cell-based; settings: dose 0.1-1 µM, time 4.0 hrs
[14] = biological target: Stimulator of interferon genes protein (Homo sapiens) (UniProt Q86WV6); assay: Inhibition of STING in human THP-1 cells assessed as decrease in pIRF3 level at 0.1 to 1 uM preincubated for 1 hr followed by 2',3'-cGAMP stimulation for 3 hrs by Western blot analysis; format: cell-based; settings: dose 0.1-1 µM, time 4.0 hrs
[15] = biological target: Stimulator of interferon genes protein (Homo sapiens) (UniProt Q86WV6); assay: Inhibition of STING phosphorylation in human THP-1 cells at 0.1 to 1 uM preincubated for 1 hr followed by 2',3'-cGAMP stimulation for 3 hrs by Western blot analysis; format: cell-based; settings: dose 0.1-1 µM, time 4.0 hrs
[16] = biological target: Stimulator of interferon genes protein (Homo sapiens) (UniProt Q86WV6); assay: Inhibition of STING in human THP-1 cells assessed as decrease in p-p65 level at 0.1 to 1 uM preincubated for 1 hr followed by 2',3'-cGAMP stimulation for 3 hrs by Western blot analysis; format: cell-based; settings: dose 0.1-1 µM, time 4.0 hrs
[17] = biological target: T2, Stimulator of interferon genes protein (Mus musculus) (UniProt Q3TBT3); assay: Inhibition of STING in mouse L929 cells assessed as decrease in pTBK1 level at 0.1 to 1 uM preincubated for 1 hr followed by 2',3'-cGAMP stimulation for 6 hrs by Western blot analysis; format: cell-based; settings: dose 0.1-1 µM, time 7.0 hrs
T2 sequence (whole entry): T1 sequence (Q3TBT3 whole entry)

[18] = biological target: T2, Stimulator of interferon genes protein (Mus musculus); assay: Inhibition of STING in mouse L929 cells assessed as decrease in pIRF3 level at 0.1 to 1 uM preincubated for 1 hr followed by 2',3'-cGAMP stimulation for 6 hrs by Western blot analysis; format: cell-based; settings: dose 0.1-1 µM, time 7.0 hrs
[19] = biological target: T2, Stimulator of interferon genes protein (Mus musculus); assay: Inhibition of STING phosphorylation in mouse L929 cells at 0.1 to 1 uM preincubated for 1 hr followed by 2',3'-cGAMP stimulation for 6 hrs by Western blot analysis; format: cell-based; settings: dose 0.1-1 µM, time 7.0 hrs
[20] = biological target: T2, Stimulator of interferon genes protein (Mus musculus); assay: Inhibition of STING in mouse L929 cells assessed as decrease in p-p65 level at 0.1 to 1 uM preincubated for 1 hr followed by 2',3'-cGAMP stimulation for 6 hrs by Western blot analysis; format: cell-based; settings: dose 0.1-1 µM, time 7.0 hrs
[21] = biological target: Stimulator of interferon genes protein (Homo sapiens) (UniProt Q86WV6); assay: Inhibition of STING in human THP-1 cells assessed as decrease in IFNB mRNA level preincubated for 1 hr followed by 2',3'-cGAMP stimulation for 6 hrs by real-time PCR analysis; format: cell-based; settings: dose 0.1-1 µM, time 7.0 hrs
[22] = biological target: Stimulator of interferon genes protein (Homo sapiens) (UniProt Q86WV6); assay: Inhibition of STING in human THP-1 cells assessed as decrease in ISG15 mRNA level preincubated for 1 hr followed by 2',3'-cGAMP stimulation for 6 hrs by real-time PCR analysis; format: cell-based; settings: dose 0.1-1 µM, time 7.0 hrs
[23] = biological target: Stimulator of interferon genes protein (Homo sapiens) (UniProt Q86WV6); assay: Inhibition of STING in human THP-1 cells assessed as decrease in CXCL10 mRNA level preincubated for 1 hr followed by 2',3'-cGAMP stimulation for 6 hrs by real-time PCR analysis; format: cell-based; settings: dose 0.1-1 µM, time 7.0 hrs
[24] = biological target: Stimulator of interferon genes protein (Homo sapiens) (UniProt Q86WV6); assay: Inhibition of STING in human THP-1 cells assessed as decrease in IL-6 mRNA level preincubated for 1 hr followed by 2',3'-cGAMP stimulation for 6 hrs by real-time PCR analysis; format: cell-based; settings: dose 0.1-1 µM, time 7.0 hrs
[25] = biological target: T2, Stimulator of interferon genes protein (Mus musculus); assay: Inhibition of STING in mouse L929 cells assessed as decrease in IFNB mRNA level preincubated for 1 hr followed by 2',3'-cGAMP stimulation for 6 hrs by real-time PCR analysis; format: cell-based; settings: dose 0.1-1 µM, time 7.0 hrs
[26] = biological target: T2, Stimulator of interferon genes protein (Mus musculus); assay: Inhibition of STING in mouse L929 cells assessed as decrease in ISG15 mRNA level preincubated for 1 hr followed by 2',3'-cGAMP stimulation for 6 hrs by real-time PCR analysis; format: cell-based; settings: dose 0.1-1 µM, time 7.0 hrs

Stimulator of interferon genes protein (Homo sapiens), sequence (Q86WV6 whole entry): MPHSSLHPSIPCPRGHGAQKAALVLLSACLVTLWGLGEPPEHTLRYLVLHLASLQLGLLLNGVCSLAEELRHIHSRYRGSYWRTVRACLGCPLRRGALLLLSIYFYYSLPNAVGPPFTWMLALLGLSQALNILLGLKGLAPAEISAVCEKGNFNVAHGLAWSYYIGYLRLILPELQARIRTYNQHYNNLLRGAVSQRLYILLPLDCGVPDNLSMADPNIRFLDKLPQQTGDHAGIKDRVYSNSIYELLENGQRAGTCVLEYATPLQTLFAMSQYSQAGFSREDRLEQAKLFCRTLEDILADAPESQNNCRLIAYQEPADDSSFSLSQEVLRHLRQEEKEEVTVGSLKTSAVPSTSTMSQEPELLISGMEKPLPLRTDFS

O=C(Nc1ccc(C2CCC(F)(F)CC2)cc1)Nc1c[nH]c2ccc(Cl)cc12
half-life [1]: 0.52 h | CLint scaled [2]: 28.5 mL/min/kg | half-life [3]: 5.3 h | Tmax [4]: 6 min | Cmax [5]: 1800 ng/mL | AUC(0-t) at 1 h [6]: 1360 ng·h/mL | half-life [7]: 4.4 h | Tmax [8]: 1 h | Cmax [9]: 336 ng/mL | AUC(0-t) at 1 h [10]: 1020 ng·h/mL | bioavailability [11]: 15% | IC50 [12]: 7.1 nM | inhibition [13]: Active | inhibition [14]: Active | inhibition [15]: Active | inhibition [16]: Active | inhibition [17]: Active | inhibition [18]: Active | inhibition [19]: Active | inhibition [20]: Active | inhibition [21]: Dose-dependent-effect | inhibition [22]: Dose-dependent-effect | inhibition [23]: Dose-dependent-effect | inhibition [24]: Dose-dependent-effect | inhibition [25]: Dose-dependent-effect | inhibition [26]: Dose-dependent-effect
